Among the data in ChEMBL document CHEMBL1125353, “Structure-activity studies on benzhydrol-containing nipecotic acid and guvacine derivatives as potent, orally-active inhibitors of GABA uptake” (J Med Chem, 1992) are ED50, IC50 and Ataxia values, retold here.

Usually ED50 stands for the dose that gives a 50% effect, or the effect in half of the subjects. A word on the IC50: it is the concentration that gives 50% inhibition. Low values mean greater potency, high ones weaker potency.

The subject of one assay is Mus musculus. Briefly: Potency inhibiting tonic extensor seizures from low-intensity corneal electroshock in mice following peroral administration. It is filed as functional.
Settings: not given
For the compound `Cl.O=C(O)C1=CCCN(CCOC(c2ccc(C(F)(F)F)cc2)c2ccc(C(F)(F)F)cc2)C1`, the ED50 worked out at 1 mg/kg.

In a further assay the test system is Mus musculus. The assay can be described thus: Potency of the inhibiting ataxia in mice following peroral administration.
Settings: not given
It is filed as functional.
`Cl.O=C(O)C1=CCCN(CCOC(c2ccc(C(F)(F)F)cc2)c2ccc(C(F)(F)F)cc2)C1` displayed an ED50 of 64 mg/kg.

The species named for the next assay is Rattus norvegicus. Briefly: In vitro Inhibitory activity against GABA uptake. It is filed as functional.
Settings: not given
In turn, `O=C(O)[C@@H]1CCCNC1` [(R)-NIPECOTIC ACID] displayed an IC50 of 5.2 µM.

The species entered for a further assay is Rattus norvegicus. The assay can be described thus: In vitro inhibition of [3H]GABA uptake in rat Hippocampal slices.
Settings: not given
It is filed as functional, organism-based.
Compound `O=C(O)[C@H]1CCCN(CCOC(c2ccc(Cl)cc2)c2ccc(Cl)cc2)C1` (stereo in doubt; 36) yielded an IC50 of 14 µM.

With `O=C(O)[C@H]1CCCN(CCOC(c2ccc(Cl)cc2)c2ccc(Cl)cc2)C1` (stereo in doubt; 37), the IC50 was 0.18 µM.

Still in this assay, the particulars now being: Rattus norvegicus, 3 h.
`O=C(O)C1CCCN(CCCOC(c2ccccc2)c2ccccc2)C1` (stereo not given): the IC50 was determined as 12 µM.

Turning to `COC(=O)C1=CCCN(CCOC(c2ccc(C(F)(F)F)cc2)c2ccc(C(F)(F)F)cc2)C1`, the IC50 amounted to 40 µM.

Consider `O=C(O)C1CCCN(CCOC(c2ccc(Cl)cc2)c2ccco2)C1` (stereo not given), for which the IC50 turned out to be 8.7 µM.

In turn, `O=C(O)CC1CCN(CCOC(c2ccc(Cl)cc2)c2ccc(Cl)cc2)C1` (stereo not given) returned an IC50 of 2.7 µM.

As for `O=C(O)C1CCN(CCOC(c2ccc(Cl)cc2)c2ccc(Cl)cc2)CC1`, the half-inhibitory concentration (IC50) is above 50 µM.

Turning to `O=C1CCCN1CCOC(c1ccc(Cl)cc1)c1ccc(Cl)cc1`, 26 µM corresponded to half-maximal inhibition (IC50).

`O=C(O)C1CCCN(CCOC(c2ccc(Cl)cc2)c2cccs2)C1` (stereo not given): it took 3.6 µM to reach half-maximal inhibition (IC50).

Take `O=C(O)C1CCCN(CCC=C(c2ccccc2)c2ccccc2)C1` (stereo not given): the IC50 stood at 10 µM.

`O=C(O)C1CCCN(CCCOC(c2ccccc2)(c2ccccc2)c2ccccc2)C1` (stereo not given) showed an IC50 of 7.9 µM.

Turning to `O=C(O)C1CCCN(CCOC(c2ccc(Cl)cc2)c2ccc(Cl)c(C(F)(F)F)c2)C1` (stereo not given), 1.4 µM corresponded to half-maximal inhibition (IC50).

`COC(=O)C1CCCN(CCOC(c2ccc(Cl)cc2)c2ccc(Cl)cc2)C1` (stereo not given) yielded an IC50 of 0.7 µM.

With `CN(C)C(=O)C1CCCN(CCOC(c2ccc(Cl)cc2)c2ccc(Cl)cc2)C1` (stereo not given), the IC50 came out at 25 µM.

In turn, `NC(=O)C1CCCN(CCOC(c2ccc(Cl)cc2)c2ccc(Cl)cc2)C1` (stereo not given) came in with an IC50 of 35 µM.

In the case of `O=C(O)C1CCCN(CCOC(c2ccccc2)c2ccc(Cl)cc2)C1` (stereo not given), the midpoint of inhibition, the IC50, lay at 20 µM.

`O=C(O)C1CCCN(CCOC(c2ccccc2)c2ccc(Cl)c(Cl)c2)C1` (stereo not given): it took 1.2 µM to reach half-maximal inhibition (IC50).

The compound `CNC(=O)C1CCCN(CCOC(c2ccc(Cl)cc2)c2ccc(Cl)cc2)C1` (stereo not given) had a half-maximal inhibitory concentration (IC50) of 40 µM.

The compound `O=C(O)C1CCCN(CCOC(c2ccc(Cl)c(Cl)c2)C2CCCCC2)C1` (stereo not given) gave an IC50 of 1.1 µM.

`Clc1ccc(C(OCCN2CCCCC2)c2ccc(Cl)cc2)cc1` displayed an IC50 of 21 µM.

As to `Cl.O=C(O)C1=CCCN(CCOC(c2ccc(C(F)(F)F)cc2)c2ccc(C(F)(F)F)cc2)C1`, the IC50 was determined as 0.34 µM.

`O=C(O)C1CCCN(CCOC(c2ccccc2)c2ccccc2)C1` (stereo not given) returned a half-inhibitory concentration (IC50) of 3.4 µM.

On to `O=C(CCCN1CCCC(C(=O)O)C1)c1ccc(F)cc1` (stereo not given), for which the IC50 is above 50 µM.

In turn, `CCOC(=O)C1CCCN(CCOC(c2ccc(Cl)cc2)c2ccc(Cl)cc2)C1` (stereo not given) returned an IC50 of 11 µM.

On to `O=C(O)C1CCCN(CCc2oc3ccccc3c2-c2ccccc2)C1` (stereo not given), for which the IC50 worked out at 22 µM.

Consider `O=C(O)[C@H]1CN(CCOC(c2ccc(Cl)cc2)c2ccc(Cl)cc2)CC[C@@H]1O`, for which the IC50 stood at 1.2 µM.

As to `Cl.O=C(O)C1CCCN(CCOC(c2ccc(Cl)cc2)c2ccc(Cl)cc2)C1` (stereo not given), the IC50 stood at 0.41 µM.

In turn, `Cc1ccc(C(OCCN2CCCC(C(=O)O)C2)c2ccc(C)cc2)cc1` (stereo not given) yielded an IC50 of 5.7 µM.

As to `O=C(O)C1CCCN(CCOC(c2ccc(Cl)c(Cl)c2)c2ccc(Cl)c(Cl)c2)C1` (stereo not given), the IC50 is 2.5 µM.

For the compound `O=C(O)C1CCCN(CCC2CC2(c2ccccc2)c2ccccc2)C1` (stereo not given), the IC50 is above 50 µM.

The compound `N#CC1CCCN(CCOC(c2ccc(Cl)cc2)c2ccc(Cl)cc2)C1` (stereo not given) gave an IC50 above 50 µM.

Regarding `O=C(O)C1CCCN(CC(=O)C(c2ccccc2)c2ccccc2)C1` (stereo not given), the IC50 was above 50 µM.

For the compound `Cc1cc(Cl)ccc1C(OCCN1CCCC(C(=O)O)C1)c1ccc(Cl)cc1C` (stereo not given), the midpoint of inhibition, the IC50, lay at 3.2 µM.

For `O=C(O)C1CCCN(CCOC2c3ccc(Cl)cc3CCc3cc(Cl)ccc32)C1` (stereo not given), the IC50 was 1.6 µM.

As to `O=C(O)C1CCN(CCOC(c2ccc(Cl)cc2)c2ccc(Cl)cc2)C1` (stereo not given), the IC50 is above 50 µM.

The compound `O=C(O)C1CCCN(CCSC(c2ccccc2)c2ccccc2)C1` (stereo not given) returned an IC50 of 60 µM.

Turning to `O=C(O)C1CCCN(CCOC(c2ccc(OC(F)(F)F)cc2)c2ccc(OC(F)(F)F)cc2)C1` (stereo not given), the IC50 came out at 0.92 µM.

As for `O=C(O)[C@H]1CN(CCOC(c2ccc(Cl)cc2)c2ccc(Cl)cc2)CC[C@H]1O`, the IC50 is 1.5 µM.

Regarding `O=C(O)C1CCCN(CCC(Cc2ccccc2)c2ccccc2)C1` (stereo not given), the IC50 came out at 50 µM.

`O=C(O)C1CCCN(CCOC(c2ccc(C(F)(F)F)cc2)c2ccc(C(F)(F)F)cc2)C1` (stereo not given) displayed an IC50 of 0.71 µM.

For the compound `Cl.O=C(O)C1=CCCN(CCOC(c2ccc(Cl)cc2)c2ccc(Cl)cc2)C1`, the IC50 worked out at 0.41 µM.

Compound `OCC1CCCN(CCOC(c2ccc(Cl)cc2)c2ccc(Cl)cc2)C1` (stereo not given) had an IC50 of 47 µM.

Compound `CC(=O)C1CCCN(CCOC(c2ccc(Cl)cc2)c2ccc(Cl)cc2)C1` (stereo not given) showed an IC50 of 22 µM.

Compound `O=C(O)C1CCCN(CCOC(c2ccc(F)cc2)c2ccc(F)cc2)C1` (stereo not given) registered an IC50 of 7.8 µM.

Regarding `O=C(O)C1CCCN(CCOC2c3ccccc3C=Cc3ccccc32)C1` (stereo not given), the IC50 is 2.5 µM.

The compound `O=C(O)[C@@H]1CCCNC1` [(R)-NIPECOTIC ACID] returned an IC50 of 5.2 µM.

The compound `O=C(O)[C@H]1CCCNC1` [(S)-NIPECOTIC ACID] came in with an IC50 of 55 µM.

The compound `NC(=O)N1c2ccccc2C=Cc2ccccc21` [CARBAMAZEPINE] gave an IC50 above 50 µM.

`O=C(O)C1=CCCNC1` [GUVACINE]: the concentration for half-maximal inhibition (IC50) was found to be 7.3 µM.

`O=C1NC(=O)C(c2ccccc2)(c2ccccc2)N1` [PHENYTOIN] registered an IC50 above 50 µM.

Take `CCCC(CCC)C(=O)O` [VALPROIC ACID]: the IC50 is above 50 µM.

In the next assay the target is Sodium channel alpha subunits; brain (Types I, II, III) (Rattus norvegicus, UniProt P04775+P04774+P08104). The assay can be described thus: Inhibition of veratridine-stimulated [14C]- guanidine influx into rat cortical slice.
Settings: not given
It is filed as functional.
Regarding `Cl.O=C(O)C1=CCCN(CCOC(c2ccc(C(F)(F)F)cc2)c2ccc(C(F)(F)F)cc2)C1`, the IC50 came out at 10 µM.

Another assay relates to Rattus norvegicus. The assay can be described thus: Anticonvulsant activity against kindled rats was determined after ip administration. It is filed as functional.
Settings: not given
In turn, `Cl.O=C(O)C1CCCN(CCOC(c2ccc(Cl)cc2)c2ccc(Cl)cc2)C1` (stereo not given) gave an ED50 of 25 mg/kg.

For the compound `Cl.O=C(O)C1=CCCN(CCOC(c2ccc(Cl)cc2)c2ccc(Cl)cc2)C1`, the ED50 is 14 mg/kg.

The species named for a further assay is Rattus norvegicus. The assay can be described thus: Potency inhibiting focal seizures in rat hippocampus preventing hippocampal after discharges. It is filed as functional.
Settings: not given
In the case of `Cl.O=C(O)C1=CCCN(CCOC(c2ccc(C(F)(F)F)cc2)c2ccc(C(F)(F)F)cc2)C1`, the 50% effect level (ED50) was put at a dose of 2.6 mg/kg.

In the next assay the test system is Rodentia sp. Briefly: Potency inhibiting clonic seizures induced by GABA antagonist pentylene tetrazole(PTZ) in rodents following oral administration.
Settings: not given
It is filed as functional.
The compound `Cl.O=C(O)C1=CCCN(CCOC(c2ccc(C(F)(F)F)cc2)c2ccc(C(F)(F)F)cc2)C1` showed an ED50 of 0.4 mg/kg.

For another assay, the system named is Rodentia sp. Briefly: Inhibitory potency against threshold clonic seizures induced by ip picrotoxin in rodents. It is filed as functional.
Settings: not given
In turn, `Cl.O=C(O)C1=CCCN(CCOC(c2ccc(C(F)(F)F)cc2)c2ccc(C(F)(F)F)cc2)C1` yielded an Ataxia of 1.7%.
